Experimental data from ChEMBL document CHEMBL1148684, “Benzimidazole-2-carboxamides as novel NR2B selective NMDA receptor antagonists” (Bioorg Med Chem Lett, 2006).

Assays:
[1] = target: Glutamate NMDA receptor; assay: Inhibition of NMDA-evoked increase in intracellular calcium ion in rat cortical cells; format: functional, cell-based
[2] = target: Glutamate receptor ionotropic, NMDA 2B (Rattus norvegicus, UniProt Q00960); assay: Displacement of [3H]Ro25-6981 from NR2B NMDA receptor in rat forebrain membrane; format: cell membranes
Sequence of Glutamate receptor ionotropic, NMDA 2B (Q00960 whole entry): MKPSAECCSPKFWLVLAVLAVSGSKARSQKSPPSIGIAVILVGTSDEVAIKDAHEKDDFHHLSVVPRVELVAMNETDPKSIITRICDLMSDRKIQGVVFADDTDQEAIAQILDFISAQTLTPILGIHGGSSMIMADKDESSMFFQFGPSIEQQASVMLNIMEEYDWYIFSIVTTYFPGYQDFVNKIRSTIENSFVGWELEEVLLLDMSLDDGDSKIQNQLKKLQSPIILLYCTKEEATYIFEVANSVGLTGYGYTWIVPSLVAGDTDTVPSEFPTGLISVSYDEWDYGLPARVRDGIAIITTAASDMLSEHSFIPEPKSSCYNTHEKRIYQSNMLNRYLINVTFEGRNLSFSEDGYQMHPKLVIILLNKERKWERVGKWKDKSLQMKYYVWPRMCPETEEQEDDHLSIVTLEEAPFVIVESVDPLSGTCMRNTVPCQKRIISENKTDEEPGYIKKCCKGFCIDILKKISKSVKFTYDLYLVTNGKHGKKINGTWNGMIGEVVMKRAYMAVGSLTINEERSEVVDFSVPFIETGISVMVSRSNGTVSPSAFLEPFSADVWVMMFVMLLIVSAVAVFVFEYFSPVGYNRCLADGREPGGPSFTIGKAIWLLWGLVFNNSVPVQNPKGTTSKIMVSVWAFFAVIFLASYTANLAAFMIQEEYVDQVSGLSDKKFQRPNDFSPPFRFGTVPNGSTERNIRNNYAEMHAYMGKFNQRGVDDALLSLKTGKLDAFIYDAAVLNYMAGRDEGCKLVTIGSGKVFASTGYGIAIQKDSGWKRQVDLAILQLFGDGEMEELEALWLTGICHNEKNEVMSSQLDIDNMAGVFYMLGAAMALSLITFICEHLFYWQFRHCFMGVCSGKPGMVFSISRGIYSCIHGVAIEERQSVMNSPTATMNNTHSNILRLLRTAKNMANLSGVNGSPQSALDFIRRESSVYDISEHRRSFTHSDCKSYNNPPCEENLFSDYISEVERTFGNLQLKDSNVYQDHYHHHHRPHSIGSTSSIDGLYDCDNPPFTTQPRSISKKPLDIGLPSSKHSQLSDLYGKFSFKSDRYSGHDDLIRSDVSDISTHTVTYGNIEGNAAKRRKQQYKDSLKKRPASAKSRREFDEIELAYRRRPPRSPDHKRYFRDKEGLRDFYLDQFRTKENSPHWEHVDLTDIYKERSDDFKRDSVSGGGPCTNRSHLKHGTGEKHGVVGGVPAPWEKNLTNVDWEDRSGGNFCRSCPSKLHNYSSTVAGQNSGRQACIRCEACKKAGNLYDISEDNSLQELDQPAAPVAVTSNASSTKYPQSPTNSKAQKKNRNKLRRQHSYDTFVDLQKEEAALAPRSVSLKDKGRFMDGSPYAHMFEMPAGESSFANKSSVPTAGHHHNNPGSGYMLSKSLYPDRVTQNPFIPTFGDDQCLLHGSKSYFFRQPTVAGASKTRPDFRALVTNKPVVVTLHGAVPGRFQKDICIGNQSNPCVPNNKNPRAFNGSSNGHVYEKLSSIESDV

[3] = Inhibition of NMDA-evoked current in EcR293 cells transfected with NR1/NR2D upto 10 uM by patch clamp method; format: functional, HEK293
[4] = tested on: Mus musculus; assay: Analgesic activity against formalin-induced persistent pain in orally dosed NMRI mouse assessed as decrease in licking time relative to control; format: functional; conditions: po
[5] = target: Glutamate NMDA receptor; GRIN1/GRIN2A (Homo sapiens) (UniProt Q05586+Q12879); assay: Inhibition of NMDA-evoked current in EcR293 cells transfected with NR1/NR2A upto 10 uM by patch clamp method; format: functional, cell-based; conditions: HEK293

SMILES	IC50 [1] [nM]	IC50 [2] [nM]	Inhibition [3] [%]	ED50 [4] [mg/kg]	inhibition [5] [%]
CS(=O)(=O)Nc1ccc2nc(CN3CCC(Cc4ccccc4)CC3)[nH]c2c1	8.6	3.5			
Cc1ccc(CC2CCN(C(=O)c3nc4ccc(O)cc4[nH]3)CC2)cc1	8.7	4.4			
O=C(c1nc2ccc(O)cc2[nH]1)N1CCC(Cc2ccccc2)CC1		4	<20	1.6	< 20
Cc1ccccc1CC1CCN(C(=O)c2nc3cc(O)ccc3[nH]2)CC1	12	8.4			
Nc1ccc2[nH]c(C(=O)N3CCC(Cc4ccccc4)CC3)nc2c1	40	143			
COc1cccc(CC2CCN(C(=O)c3nc4ccc(O)cc4[nH]3)CC2)c1	2.5	3.2			
CS(=O)(=O)Nc1ccc2[nH]c(C(=O)N3CCC(Cc4ccccc4)CC3)nc2c1	1.3	3			
C[C@@H](CN1CCC(Cc2ccccc2)CC1)[C@@H](O)c1ccc(O)cc1	159	6			
O=C(c1nc2c(O)cccc2[nH]1)N1CCC(Cc2ccccc2)CC1	3	10			
O=C(c1nc2ccc(O)cc2[nH]1)N1CCC(Cc2ccc(F)cc2)CC1	1.2	4			
O=C(c1nc2ccc(O)cc2[nH]1)N1CCC(Oc2ccc(F)cc2)CC1	2.9	6			
O=C(c1nc2ccc(O)cc2[nH]1)N1CCC(Oc2ccc(Cl)cc2)CC1	1.7	14			
Cc1cccc(CC2CCN(C(=O)c3nc4ccc(O)cc4[nH]3)CC2)c1	2.4	5			
O=c1[nH]c2ccc([S+]([O-])CCN3CCC(Cc4ccc(F)cc4)CC3)cc2o1 (centres undefined) [BESONPRODIL]	6.6	4			
Cc1ccc(OC2CCN(C(=O)c3nc4ccc(O)cc4[nH]3)CC2)cc1	1.1	3			
O=C(c1nc2ccc(O)cc2[nH]1)N1CCC(Cc2cccc(F)c2)CC1	6	5.2			
